# Data as given in patent US20250026788A1, “PEPTIDES FOR THE TREATMENT OF CHRONICALLY ACTIVE AUTOIMMUNE INFLAMMATION” (advanceCOR GmbH, priority 2021, published 2025).
# Ends that are not written are not given here.
# Assays:
# [1] = tested on: FIA-CIA (bCII- and hFib-immunized mice which develop RA-like arthritis); details: for overview of the paws: soft tissue enhancement and lymphocyte infiltration (HE sections): right hind paws; for arthritis score: score 0-16 per mouse
# [2] = tested on: anti-bCII or anti-hFib antibody titers; assay: Measurement of mouse antibodies by ELISA in sera of treated FIA-CIA mice; format: in vivo; details: sera taken on days 35 and 84, 1 mg/kg i.v. on days 14, 35 and 56
# Description: Serum was collected on days 0, 14, 35 and 56 of the experiment via bleeding of the tail vein. Treatment with peptides 90091, 90578 (at a concentration of 1 mg/kg body weight) or 0.9% NaCl was applied intravenously on day 14, 35 and 56. Mice were randomly distributed to the three treatment groups. Treatment compounds were numbered 1, 2 and 3. To minimize confounders, each of the three mice per cage received a different treatment. All clinical and histological investigators were blinded to the treatment until data analysis was finished. For comparability between the therapy groups, all mice, including the CFA control mice, received a daily dose of 1 mg/kg Metacam® (meloxicam) from day 14 after the first immunization on until the end of the experiment. Mice were killed on day 84 of the experiments via intracardiac punction and blood withdrawal under ketamine/xylazine anaesthesia.
# ELISA plates were coated with 100 μl per well of either 1 μg/ml bCII (Chondrex, Inc.) or 1 μg/ml hFib (Millipore/Calbiochem) or 1 μg/ml citrullinated hFib (Cayman) or CCP peptide at a concentration of 10 μg/ml in coating solution for 1 h. The CCP peptide we used for the selected CCP assay had the following sequence: HQCHQEST(cit)GRSRGRCGRSGS (SEQ ID NO: 2), with disulphide bonds spanning C3-C16.
# All subsequent procedures were performed at room temperature (RT) and incubations were done on a microtiter plate shaker. […] After washing, the POD was detected by incubation with 100 μl/well of TMB substrate (Thermo Scientific, #34029) until a maximal optical density (OD) of about 1 to 2 was reached. Finally, the colorimetric reaction was stopped with 100 μl/well stopping solution (1M H2SO4) and the OD determined at a wavelength of 450 nm with a reference wavelength of 595 nm with the Tecan Infinite F 200 plate reader.
# For assessment of antibodies, various antigens were coated on ELISA plates, and the sera of the mice were added. Binding of antibodies to the antigens was then measured by adding anti-mouse antibodies labelled with POD.
# [3] = 1 mg/kg i.v. on days 14, 35 and 56
# [4] = 1 mg/kg i.v. on days 14, 35 and 56, vs NaCl
Molecule,"adverse effects ([1]; mouse, in vivo, 1 mg/kg)","antibody levels (anti-bCII, anti-hFib titers) [2]","ankle and tarsal joint histology (lymphocyte infiltrates, cartilage, pannus) [1, 3]","survival probability (Kaplan-Meier, log-rank) ([1]; 1 mg/kg i.v. on days 14, 35 and 56, mice killed when arthritis too severe)","overview of the paws: soft tissue enhancement and lymphocyte infiltration (HE sections) [1, 3]","arthritis score [1, 4]","antibody levels (anti-bCII, anti-hFib titers) ([2]; 1 mg/kg)","antibody levels (anti-bCII, anti-hFib titers) ([2]; listed as Peptide 905778, 1 mg/kg)","paw swelling of tarsal joints ([1]; 1 mg/kg i.v. on days 14, 35 and 56, caliper, vs NaCl)","average histology score ([1]; 1 mg/kg i.v. on days 14, 35 and 56, right hind paw HE sections at day 84, score max 15, N=8)"
"Cc1cnc(NC(=O)C2=C(O)c3ccccc3S(=O)(=O)N2C)s1 [meloxicam, reference compound]",did not develop any adverse effects,,,,,,,,,
"peptide 90091: non-fructosylated derivative of peptide 90578, amino sequence GEPGIAGFKGEQGPK (SEQ ID No: 1) (CARBOHYD (9)..(9); listed as Bos taurus) [reference compound]",,not Affected by Treatment,"less lymphocyte infiltrates, but also pannus formation and cartilage erosion",did not reveal a significant difference between groups,severely enhanced,"seemed to enhance arthritis, but not significantly",,,,
"peptide 90578: GEPGIAGFKGEQGPK (SEQ ID NO: 1, bCII 256-270) with a D-fructosyl residue on the lysine at position 264 (position 9) (GEPGIAGFK(D‑fructosyl)GEQGPK; listed as Bos taurus)",,,the cartilage was intact and there were only a few lymphocyte infiltrates in the subchondral bone,,less tissue enhancement and lymphocyte infiltration,tended to be less severe,this effect could not be found in the antibody levels,not Affected by Treatment,significantly lower swelling on days 49 and 56,3.9
